This is an account of results in patent US8435980B2 (AbbVie Inc., priority 2009, dated 2013).

The term Ki denotes a dissociation constant, usually derived from enzyme kinetics or from competition with a known ligand.

In the first assay the target is T1, Cdc7 (BEV coexpressed huCDC7/DBF4) (Homo sapiens, UniProt O00311).
T1 construct: made in house; host or cells: BEV (baculovirus expression vector) co-expression; insect cells are implied but no cell line is named
T1 sequence (O00311 whole entry): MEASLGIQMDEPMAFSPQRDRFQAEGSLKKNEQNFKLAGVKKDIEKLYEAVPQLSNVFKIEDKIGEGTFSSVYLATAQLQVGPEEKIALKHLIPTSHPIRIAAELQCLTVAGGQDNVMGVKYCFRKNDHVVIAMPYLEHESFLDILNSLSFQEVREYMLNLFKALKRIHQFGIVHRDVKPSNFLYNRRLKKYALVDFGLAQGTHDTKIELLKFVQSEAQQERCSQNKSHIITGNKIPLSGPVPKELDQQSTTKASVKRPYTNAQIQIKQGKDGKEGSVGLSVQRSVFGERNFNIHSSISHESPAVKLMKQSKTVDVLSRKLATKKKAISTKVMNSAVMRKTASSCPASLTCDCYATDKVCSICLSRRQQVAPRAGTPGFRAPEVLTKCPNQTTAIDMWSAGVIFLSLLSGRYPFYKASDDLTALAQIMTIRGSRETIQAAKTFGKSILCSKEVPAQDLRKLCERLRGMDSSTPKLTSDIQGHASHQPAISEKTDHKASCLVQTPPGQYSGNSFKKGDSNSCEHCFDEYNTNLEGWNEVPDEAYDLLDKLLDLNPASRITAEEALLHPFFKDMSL
T1 sequence (Q9UBU7 whole entry partner): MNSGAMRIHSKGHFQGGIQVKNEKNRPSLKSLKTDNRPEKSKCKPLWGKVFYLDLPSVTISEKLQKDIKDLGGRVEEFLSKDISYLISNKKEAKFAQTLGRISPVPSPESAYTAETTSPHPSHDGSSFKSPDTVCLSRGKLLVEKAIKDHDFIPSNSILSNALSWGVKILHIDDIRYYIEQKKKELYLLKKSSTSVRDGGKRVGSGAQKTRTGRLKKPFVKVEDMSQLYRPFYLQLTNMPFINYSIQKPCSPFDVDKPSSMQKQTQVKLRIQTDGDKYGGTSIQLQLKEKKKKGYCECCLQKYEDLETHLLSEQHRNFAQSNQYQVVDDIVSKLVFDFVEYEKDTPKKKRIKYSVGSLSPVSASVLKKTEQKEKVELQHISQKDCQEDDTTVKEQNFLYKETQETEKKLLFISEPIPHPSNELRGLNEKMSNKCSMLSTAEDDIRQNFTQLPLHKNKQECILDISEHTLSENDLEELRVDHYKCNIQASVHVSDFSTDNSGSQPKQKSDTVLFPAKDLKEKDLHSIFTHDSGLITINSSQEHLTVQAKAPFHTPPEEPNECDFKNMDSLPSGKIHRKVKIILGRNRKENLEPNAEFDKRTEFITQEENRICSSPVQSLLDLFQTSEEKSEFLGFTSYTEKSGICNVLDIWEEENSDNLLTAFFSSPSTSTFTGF
The experiment in a line: Cdc7 enzyme inhibition assay ([33P]ATP, biotinylated peptide substrate, FlashPlate). Format: biochemical.
Conditions: not given
On the procedure:
Cdc7 (BEV coexpressed huCDC7/DBF4) is prepared internally. Cdc7 assays are conducted as follows with final concentrations as listed. […] Reactions are quenched after 1 hr by the addition of 90 μL stop buffer (50 mM EDTA, 2M NaCl). […] (Ki) for exemplary compounds.
`CS(=O)(=O)NC1CCCC(Nc2cc(-c3c[nH]c4ncccc34)cc(Cl)n2)C1` (stereo not shown) [Example 24, N-(3-{[6-chloro-4-(1H-pyrrolo[2,3-b]pyridin-3-yl)pyridin-2-yl]-amino}cyclohexyl)methanesulfonamide]: the Ki was less than 10 nM. Still for that read-out and setting: under `Clc1cc(-c2c[nH]c3ncccc23)cc(NCC2CCOCC2)n1` [Example 25, 6-chloro-4-(1H-pyrrolo[2,3-b]pyridin-3-yl)-N-(tetrahydro-2H-pyran-4-ylmethyl)pyridin-2-amine] stands less than 10 nM; under `OC1CCCC(Nc2cc(-c3c[nH]c4ncccc34)cc(Cl)n2)C1` (stereo not shown) [Example 26, 3-{[6-chloro-4-(1H-pyrrolo[2,3-b]pyridin-3-yl)pyridin-2-yl]amino}cyclohexanol], less than 10 nM. As to `Clc1cc(-c2c[nH]c3ncccc23)cc(NCc2cccnc2)n1` [Example 27, 6-chloro-N-(pyridin-3-ylmethyl)-4-(1H-pyrrolo[2,3-b]pyridin-3-yl)pyridin-2-amine], the Ki is less than 10 nM. `Clc1cc(-c2c[nH]c3ncccc23)cc(NCC2CCCOC2)n1` (stereo not shown) [Example 28, 6-chloro-4-(1H-pyrrolo[2,3-b]pyridin-3-yl)-N-(tetrahydro-2H-pyran-3-ylmethyl)pyridin-2-amine] came in with a Ki of 10 to 100 nM. On to `Clc1cc(-c2c[nH]c3ncccc23)cc(NCC2CCNC2)n1` (stereo not shown) [Example 29, 6-chloro-N-(pyrrolidin-3-ylmethyl)-4-(1H-pyrrolo[2,3-b]pyridin-3-yl)pyridin-2-amine], for which the Ki was less than 10 nM. Consider `Cc1cccc(CNc2cc(-c3c[nH]c4ncccc34)cc(Cl)n2)c1C` [Example 30, 6-chloro-N-(2,3-dimethylbenzyl)-4-(1H-pyrrolo[2,3-b]pyridin-3-yl)pyridin-2-amine], for which the Ki was 10 to 100 nM. `Clc1cc(-c2c[nH]c3ncccc23)cc(NCc2ccncc2)n1` [Example 31, 6-chloro-N-(pyridin-4-ylmethyl)-4-(1H-pyrrolo[2,3-b]pyridin-3-yl)pyridin-2-amine] returned a Ki of 10 to 100 nM. Compound `Clc1cc(-c2c[nH]c3ncccc23)cc(NCC2CCCCO2)n1` (stereo not shown) [Example 32, 6-chloro-4-(1H-pyrrolo[2,3-b]pyridin-3-yl)-N-(tetrahydro-2H-pyran-2-ylmethyl)pyridin-2-amine] displayed a Ki of 10 to 100 nM. Regarding `Clc1cc(-c2c[nH]c3ncccc23)cc(NC2CCNCC2)n1` [Example 33, 6-chloro-N-piperidin-4-yl-4-(1H-pyrrolo[2,3-b]pyridin-3-yl)pyridin-2-amine], the Ki was in the range of 10 to 100 nM. As to `COC1CCC(Nc2cc(-c3c[nH]c4ncccc34)cc(Cl)n2)CC1` (stereo not shown) [Example 34, 6-chloro-N-(4-methoxycyclohexyl)-4-(1H-pyrrolo[2,3-b]pyridin-3-yl)pyridin-2-amine], the Ki fell in the range of 10 to 100 nM.

As for `CC(=O)NC1CCCC(Nc2cc(-c3c[nH]c4ncccc34)cc(Cl)n2)C1` (stereo not shown) [Example 35, N-(3-{[6-chloro-4-(1H-pyrrolo[2,3-b]pyridin-3-yl)pyridin-2-yl]amino}cyclohexyl)acetamide], the Ki lay within 10 to 100 nM. The compound `Fc1cc(Cl)ccc1CNc1cc(-c2c[nH]c3ncccc23)cc(Cl)n1` [Example 36, 6-chloro-N-(4-chloro-2-fluorobenzyl)-4-(1H-pyrrolo[2,3-b]pyridin-3-yl)pyridin-2-amine] gave a Ki of 10 to 100 nM.

Regarding `Clc1cc(-c2c[nH]c3ncccc23)cc(NCc2cccnc2Oc2cccnc2)n1` [Example 37, 6-chloro-N-{[2-(pyridin-3-yloxy)pyridin-3-yl]methyl}-4-(1H-pyrrolo[2,3-b]pyridin-3-yl)pyridin-2-amine], the Ki lay in the range of 10 to 100 nM. Compound `Clc1cc(-c2c[nH]c3ncccc23)cc(NCC2CCCNC2)n1` (stereo not shown) [Example 38, 6-chloro-N-(piperidin-3-ylmethyl)-4-(1H-pyrrolo[2,3-b]pyridin-3-yl)pyridin-2-amine] registered a Ki of 10 to 100 nM. Same read-out and setting: for `CC(O)CNc1cc(-c2c[nH]c3ncccc23)cc(Cl)n1` (stereo not shown) [Example 39, 1-{[6-chloro-4-(1H-pyrrolo[2,3-b]pyridin-3-yl)pyridin-2-yl]amino}propan-2-ol] the value was 10 to 100 nM. `CC(C)(CO)CNc1cc(-c2c[nH]c3ncccc23)cc(Cl)n1` [Example 40, 3-{[6-chloro-4-(1H-pyrrolo[2,3-b]pyridin-3-yl)pyridin-2-yl]amino}-2,2-dimethylpropan-1-ol]: the Ki was in the range of 10 to 100 nM. Take `OCCOCCNc1cc(-c2c[nH]c3ncccc23)cc(Cl)n1` [Example 41, 2-(2-{[6-chloro-4-(1H-pyrrolo[2,3-b]pyridin-3-yl)pyridin-2-yl]amino}ethoxy)ethanol]: the Ki was 10 to 100 nM. In turn, `N[C@H]1CC[C@H](Nc2nc(Cl)cc(-c3c[nH]c4ncccc34)n2)CC1` [Example 42, trans-N-[4-chloro-6-(1H-pyrrolo[2,3-b]pyridin-3-yl)pyrimidin-2-yl]cyclohexane-1,4-diamine] returned a Ki of less than 10 nM. For the compound `O[C@H]1CC[C@H](Nc2nc(Cl)cc(-c3c[nH]c4ncccc34)n2)CC1` [Example 44, Trans-4-{[4-chloro-6-(1H-pyrrolo[2,3-b]pyridin-3-yl)pyrimidin-2-yl]amino}cyclohexanol], the Ki is less than 10 nM. `Clc1cc(-c2c[nH]c3ncccc23)nc(NCc2ccccc2)n1` [Example 46, N-benzyl-4-chloro-6-(1H-pyrrolo[2,3-b]pyridin-3-yl)pyrimidin-2-amine] showed a Ki of 10 to 100 nM. As for `OCC(Cc1ccccc1)Nc1nc(Cl)cc(-c2c[nH]c3ncccc23)n1` (stereo not shown) [Example 47, 2-{[4-chloro-6-(1H-pyrrolo[2,3-b]pyridin-3-yl)pyrimidin-2-yl]amino}-3-phenylpropan-1-ol], the Ki fell in the range of 10 to 100 nM.

Compound `COC[C@H](Cc1ccccc1)Nc1nc(Cl)cc(-c2c[nH]c3ncccc23)n1` [Example 48, (S)-4-chloro-N-(1-methoxy-3-phenylpropan-2-yl)-6-(1H-pyrrolo[2,3-b]pyridine-3-yl)pyrimidin-2-amine] gave a Ki of 10 to 100 nM.

`Clc1cc(-c2c[nH]c3ncccc23)nc(NC2CCCCC2)n1` [Example 49, 4-chloro-N-cyclohexyl-6-(1H-pyrrolo[2,3-b]pyridin-3-yl)pyrimidin-2-amine]: the Ki is less than 10 nM.

The assay is the same for the next values; noted with them: Table 3; enzyme inhibition data (Ki).
`CS(=O)(=O)N1CCC(Nc2cc(-c3c[nH]c4ncccc34)cc(Cl)n2)CC1` [Example 51, 6-chloro-N-[1-(methylsulfonyl)piperidin-4-yl]-4-(1H-pyrrolo[2,3-b]pyridin 3-yl)pyridin-2-amine] registered a Ki of less than 10 nM. Turning to `O=S(=O)(NC1CCC(Nc2cc(-c3c[nH]c4ncccc34)cc(Cl)n2)CC1)c1ccccc1` (stereo not shown) [Example 52, N-(4-{[6-chloro-4-(1H-pyrrolo[2,3-b]pyridin-3-yl)pyridin-2-yl]amino}cyclohexyl)benzenesulfonamide], the Ki was less than 10 nM. In turn, `O=S(=O)(Cc1ccccc1)NC1CCC(Nc2cc(-c3c[nH]c4ncccc34)cc(Cl)n2)CC1` (stereo not shown) [Example 53, N-(4-{[6-chloro-4-(1H-pyrrolo[2,3-b]pyridin-3-yl)pyridin-2-yl]amino}cyclohexyl)-1-phenylmethanesulfonamide] yielded a Ki of less than 10 nM. Compound `O=S(=O)(NC1CCC(Nc2cc(-c3c[nH]c4ncccc34)cc(Cl)n2)CC1)c1cccnc1` (stereo not shown) [Example 54, N-(4-{[6-chloro-4-(1H-pyrrolo[2,3-b]pyridin-3-yl)pyridin-2-yl]amino}cyclohexyl)pyridine-3-sulfonamide] had a Ki of less than 10 nM. Consider `CCCS(=O)(=O)NC1CCC(Nc2cc(-c3c[nH]c4ncccc34)cc(Cl)n2)CC1` (stereo not shown) [Example 55, N-(4-{[6-chloro-4-(1H-pyrrolo[2,3-b]pyridin-3-yl)pyridin-2-yl]amino}cyclohexyl)propane-1-sulfonamide], for which the Ki was less than 10 nM. Consider `Clc1cc(-c2c[nH]c3ncccc23)cc(NCCN2CCOCC2)n1` [Example 56, 6-chloro-N-[2-(morpholin-4-yl)ethyl]-4-(1H-pyrrolo[2,3-b]pyridin-3-yl)pyridin-2-amine], for which the Ki was less than 10 nM. Still for that read-out and setting: for `Oc1cccc(CCNc2cc(-c3c[nH]c4ncccc34)cc(Cl)n2)c1` [Example 57, 3-(2-{[6-chloro-4-(1H-pyrrolo[2,3-b]pyridin-3-yl)pyridin-2-yl]amino}ethyl)phenol] the value was less than 10 nM; for `CC(C)CNC1CCCC(Nc2cc(-c3c[nH]c4ncccc34)cc(Cl)n2)C1` (stereo not shown) [Example 58, N-[6-chloro-4-(1H-pyrrolo[2,3-b]pyridin-3-yl)pyridin-2-yl]-N′-(2-methylpropyl)cyclohexane-1,3-diamine], less than 10 nM. Same read-out and setting: under `CN(C)C1CCCC(Nc2cc(-c3c[nH]c4ncccc34)cc(Cl)n2)C1` (stereo not shown) [Example 59, N′-[6-chloro-4-(1H-pyrrolo[2,3-b]pyridin-3-yl)pyridin-2-yl]-N,N-dimethylcyclohexane-1,3-diamine] stands less than 10 nM; under `O=C(NC1CCCC1)NC1CCC(Nc2cc(-c3c[nH]c4ncccc34)cc(Cl)n2)CC1` (stereo not shown) [Example 60, 1-(4-{[6-chloro-4-(1H-pyrrolo[2,3-b]pyridin-3-yl)pyridin-2-yl]amino}cyclohexyl)-3-cyclopentylurea], less than 10 nM. `O=S(=O)(N[C@H]1CC[C@H](Nc2cc(-c3c[nH]c4ncccc34)cc(Cl)n2)CC1)C1CC1` [Example 61, N-(trans-4-{[6-chloro-4-(1H-pyrrolo[2,3-b]pyridin-3-yl)pyridin-2-yl]amino}cyclohexyl)cyclopropanesulfonamide] yielded a Ki of less than 10 nM. The same measure, in the same setting: under `CCCNC(=O)NC1CCC(Nc2cc(-c3c[nH]c4ncccc34)cc(Cl)n2)CC1` (stereo not shown) [Example 62, 1-(4-{[6-chloro-4-(1H-pyrrolo[2,3-b]pyridin-3-yl)pyridin-2-yl]amino}cyclohexyl)-3-propylurea] stands less than 10 nM.

The compound `O=C(N[C@H]1CC[C@H](Nc2cc(-c3c[nH]c4ncccc34)cc(Cl)n2)CC1)C1CC1` [Example 63, N-(trans-4-{[6-chloro-4-(1H-pyrrolo[2,3-b]pyridin-3-yl)pyridin-2-yl]amino}cyclohexyl)cyclopropanecarboxamide] came in with a Ki of less than 10 nM.
